Test results from the supplement of paper PMC5303821, “Major sulfonate transporter Soa1 in Saccharomyces cerevisiae and considerable substrate diversity in its fungal family” (Nature Communications, 2017).

Key:
Details in all cases: sulfur source concentration 200 µM; S. cerevisiae S288C/BY sul1Δ sul2Δ soa1Δ with transporter ortholog inserted at SOA1 locus; sulfur-free B medium, 4% glucose, pH 6.5, sole sulfur source
[1] = test system: Metarhizium robertsii_XP_007822519; assay: lag phase before growth; higher = slower start of growth
[2] = test system: Ogataea parapolymorpha_XP_013935289; assay: as above
[3] = test system: Saccharomyces cerevisiae_SOA1; assay: as above
[4] = test system: Saccharomyces eubayanus_SOA1; assay: as above
[5] = test system: Saccharomyces uvarum_SOA1; assay: as above
[6] = test system: Saccharomyces uvarum_SOA2; assay: as above
[7] = test system: Aspergillus nidulans_CBF74694; assay: maximal culture density with compound as sole sulfur source (OD600); higher = better growth
[8] = test system: Fusarium oxysporum_ENH65823; assay: as above
[9] = test system: Metarhizium robertsii_XP_007822519; assay: as above
[10] = test system: Ogataea parapolymorpha_XP_013936897; assay: as above
[11] = test system: Saccharomyces cerevisiae_SOA1; assay: as above
[12] = test system: Saccharomyces eubayanus_SOA2; assay: as above
[13] = test system: Saccharomyces uvarum_SOA1; assay: as above
[14] = test system: Saccharomyces uvarum_SOA2; assay: as above
[15] = test system: Aspergillus nidulans (IAM 2006)_astA; assay: maximal growth rate with compound as sole sulfur source (OD600 per h); higher = better growth / uptake of the sulfur source
[16] = test system: Aspergillus nidulans_CBF74694; assay: as above
[17] = test system: Aspergillus nidulans_CBF80346; assay: as above
[18] = test system: Aspergillus nidulans_XP_660563; assay: as above
[19] = test system: Aspergillus nidulans_XP_660670; assay: as above
[20] = test system: Aspergillus nidulans_XP_661711; assay: as above
[21] = test system: Aspergillus nidulans_XP_661733; assay: as above
[22] = test system: Aspergillus nidulans_XP_681611; assay: as above
[23] = test system: Fusarium oxysporum_ENH65823; assay: as above
[24] = test system: Metarhizium robertsii_XP_007821441; assay: as above
[25] = test system: Metarhizium robertsii_XP_007822519; assay: as above
[26] = test system: Metarhizium robertsii_XP_007823832; assay: as above
[27] = test system: Ogataea parapolymorpha_XP_013932458; assay: as above
[28] = test system: Ogataea parapolymorpha_XP_013935289; assay: as above
[29] = test system: Ogataea parapolymorpha_XP_013936897; assay: as above
[30] = test system: Saccharomyces cerevisiae_SOA1; assay: as above
[31] = test system: Saccharomyces eubayanus_SOA1; assay: as above
[32] = test system: Saccharomyces eubayanus_SOA2; assay: as above
[33] = test system: Saccharomyces uvarum_SOA1; assay: as above
[34] = test system: Saccharomyces uvarum_SOA2; assay: as above
[35] = test system: soa1 del; assay: as above

SMILES | lag phase before growth [1] [h] | lag phase before growth [2] [h] | lag phase before growth [3] [h] | lag phase before growth [4] [h] | lag phase before growth [5] [h] | lag phase before growth [6] [h] | maximal culture density [7] | maximal culture density [8] | maximal culture density [9] | maximal culture density [10] | maximal culture density [11] | maximal culture density [12] | maximal culture density [13] | maximal culture density [14] | maximal growth rate [15] | maximal growth rate [16] | maximal growth rate [17] | maximal growth rate [18] | maximal growth rate [19] | maximal growth rate [20] | maximal growth rate [21] | maximal growth rate [22] | maximal growth rate [23] | maximal growth rate [24] | maximal growth rate [25] | maximal growth rate [26] | maximal growth rate [27] | maximal growth rate [28] | maximal growth rate [29] | maximal growth rate [30] | maximal growth rate [31] | maximal growth rate [32] | maximal growth rate [33] | maximal growth rate [34] | maximal growth rate [35]
CCS(=O)(=O)O [Ethanesulfonate] | 7.36 | 8.69 | 10.3 | 9.96 | 9.26 | 15.6 | 0.182 | 0.197 | 1.6 | 0.296 | 1.58 | 1.75 | 1.59 | 1.76 | 0.0175 | 0.00278 | 0.00396 | 0.00579 | 0.0037 | 0.00368 | 0.00379 | 0.00641 | 0.00347 | 0.00304 | 0.0594 | 0.0141 | 0.00424 | 0.0784 | 0.00513 | 0.076 | 0.0681 | 0.0754 | 0.0735 | 0.081 | 0.00466
O=S(=O)(O)CO [Hydroxymethane sulfonate] | 7.86 | 6.08 | 6.75 | 7.32 | 6.88 | 11.1 | 0.203 | 0.195 | 1.59 | 0.303 | 1.61 | 1.66 | 1.6 | 1.73 | 0.0343 | 0.00325 | 0.00313 | 0.00603 | 0.00358 | 0.00357 | 0.00489 | 0.00603 | 0.00319 | 0.0032 | 0.0756 | 0.038 | 0.00402 | 0.114 | 0.00499 | 0.121 | 0.0972 | 0.0594 | 0.109 | 0.107 | 0.00406
N[C@@H](CS(=O)(=O)O)C(=O)O [L-cysteic acid] | 17.9 | 10.9 | 12.6 | – | 6.98 | – | 0.451 | 1.16 | 1.38 | 0.391 | 1.46 | 0.254 | 1.25 | 0.234 | 0.0282 | 0.003 | 0.00644 | 0.00641 | 0.00837 | 0.00852 | 0.0304 | 0.00678 | 0.01 | 0.00544 | 0.00861 | 0.028 | 0.00397 | 0.035 | 0.00557 | 0.037 | 0.00648 | 0.00291 | 0.00754 | 0.00261 | 0.00337
CSCC[C@H](N)C(=O)O [Methionine] | 4.74 | 4.02 | 5.45 | 3.83 | 3.45 | 4.3 | 1.57 | 1.59 | 1.59 | 1.57 | 1.61 | 1.63 | 1.57 | 1.68 | 0.143 | 0.138 | 0.139 | 0.13 | 0.139 | 0.139 | 0.136 | 0.142 | 0.144 | 0.137 | 0.139 | 0.138 | 0.131 | 0.13 | 0.123 | 0.145 | 0.129 | 0.127 | 0.131 | 0.138 | 0.141
CCCS(=O)(=O)O [Propanesulfonate] | 21.1 | 10.8 | 15.7 | 11.9 | 11.1 | 19 | 0.192 | 0.232 | 1.88 | 0.296 | 1.6 | 1.7 | 1.56 | 1.69 | 0.0176 | 0.00267 | 0.00331 | 0.00627 | 0.00401 | 0.00399 | 0.00555 | 0.00692 | 0.00365 | 0.0026 | 0.0162 | 0.0143 | 0.0042 | 0.0825 | 0.00486 | 0.0797 | 0.0691 | 0.0792 | 0.0748 | 0.0773 | 0.00415
